Consider 27 compounds from patent US10766894B2, “Aza-indazole compounds for use in tendon and/or ligament injuries” (NOVARTIS AG, priority 2016, dated 2020).

Read-outs that look alike come from different tables or passages of the source.

Assay [1] has as its system collagen type 1 (Col1a2) gene expression in rat tail tendon fascicles. Description: Ex vivo assay, tendon fascicles, collagen type 1 mRNA (qPCR). The assay is classed as cell-based, Sprague Dawley rat. The conditions noted are these: 96 h.
For assay [2], the system named is mouse immortalized TT-D6 Scx-luciferase (ScxL) cell line; transcriptional activation of Scleraxis (Scx) gene. Description: SCX-LUC in vitro assay (scleraxis promoter luciferase reporter). It counts as cell-based. As to conditions: Mus musculus, 96 h. A general note: A reporter such as luciferase makes a cellular process visible.
Assay [3] relates to Tenomodulin (Tnmd) gene expression in rat tail tendon fascicles. Description: Ex vivo assay, tendon fascicles, Tenomodulin mRNA (qPCR). The assay is classed as cell-based, Sprague Dawley rat. The conditions noted are these: 96 h. (Real-time PCR tracks product formation cycle by cycle.)
Assay [4] deals with Scleraxis (Scx) gene expression in rat tail tendon fascicles. Description: Ex vivo assay, tendon fascicles, Scleraxis mRNA (qPCR). The conditions noted are these: 96 h. It counts as cell-based, Sprague Dawley rat.
[5] abbreviates: Examples table, rat tail tendon fascicles, four days, delta-delta Ct, read-out: Ex vivo Col1a2 (EC50 μM).
Setting [6] is: Examples table, TT-D6 Scx-luciferase cells, 1 ng/ml TGFβ1, four days, read-out: Scx-Luc (EC50 μM).
Where [7] appears, read: Examples table, rat tail tendon fascicles, four days, delta-delta Ct, read-out: Ex vivo Tnmd (EC50 μM).
Where [8] appears, read: Examples table, rat tail tendon fascicles, four days, delta-delta Ct, read-out: Ex vivo Scx (EC50 μM).
[9] abbreviates: Table 1, TT-D6 Scx-luciferase cells, 1 ng/ml TGFβ1, four days, read-out: Scx-Luc (EC50 uM).
[10] abbreviates: Rattus norvegicus, read-out: Ex vivo Col1a2 (EC50 uM).
The mark [11] stands for this setting: Rattus norvegicus, read-out: Ex vivo Tnmd (EC50 uM).
Where [12] appears, read: Rattus norvegicus, read-out: Ex vivo SCX (EC50 uM).

One may read the EC50 as the concentration that produces a half-maximal response.

Consider `Nc1n[nH]c2ccc(-c3ccc(NS(=O)(=O)c4ccc(Cl)cc4)cc3Cl)nc12` [Example 3, N-(4-(3-amino-1H-pyrazolo[4,3-b]pyridin-5-yl)-3-chlorophenyl)-4-chlorobenzenesulfonamide], for which the EC50 is 3.08 µM in assay [1] (setting [5]), 0.801 µM in assay [2] (setting [6]), 1.15 µM in assay [3] (setting [7]) and above 10 µM in assay [4] (setting [8]).

Regarding `Cc1cc(S(=O)(=O)NC2CC(F)(F)C2)ccc1-c1ccc2[nH]nc(N)c2n1` [Example 8, 4-(3-amino-1H-pyrazolo[4,3-b]pyridin-5-yl)-N-(3,3-difluorocyclobutyl)-3-methylbenzenesulfonamide], the EC50 worked out at 1.29 µM in assay [1] (setting [5]), 0.346 µM in assay [2] (setting [6]), 0.261 µM in assay [3] (setting [7]) and 0.11 µM in assay [4] (setting [8]).

Consider `Nc1n[nH]c2ccc(-c3ccc(S(=O)(=O)NC4CCCCC4O)cc3Cl)nc12` (stereo not drawn) [Example 12, 4-(3-amino-1H-pyrazolo[4,3-b]pyridin-5-yl)-3-chloro-N-(2-hydroxycyclohexyl)benzenesulfonamide], for which the EC50 in assay [1] (setting [5]) was 4.62 µM; in assay [2] (setting [6]), 0.765 µM; in assay [3] (setting [7]) it was 5.39 µM; in assay [4] (setting [8]), 5.79 µM.

In the case of `N#C[C@H]1CC(=O)CC[C@@H]1n1cc(C(N)=O)c(Nc2ccc(C(F)(F)F)cc2)n1` [reference compound], the concentration for a half-maximal effect (EC50) in assay [1] (Table 1, rat tail tendon fascicles, four days, delta-delta Ct, read-out: Ex vivo Col1a2 (EC50 uM)) is 0.94 µM; in assay [2] (setting [9]), 1.24 µM; in assay [3] (Table 1, rat tail tendon fascicles, four days, delta-delta Ct, read-out: Ex vivo Tnmd (EC50 uM)) it was 4.83 µM; in assay [4] (Table 1, rat tail tendon fascicles, four days, delta-delta Ct, read-out: Ex vivo SCX (EC50 uM)), 0.85 µM.

Consider `Nc1n[nH]c2ccc(-c3ccc(S(=O)(=O)N[C@@H]4CCC[C@@H]4O)cc3Cl)nc12` [Example 7, 4-(3-amino-1H-pyrazolo[4,3-b]pyridin-5-yl)-3-chloro-N-((1R,2S)-2-hydroxycyclopentyl)benzenesulfonamide], for which the EC50 in assay [1] (setting [5]) is 2.06 µM; in assay [2] (setting [6]), 0.305 µM; in assay [3] (setting [7]), 1.68 µM; in assay [4] (setting [8]) it was 1.6 µM.

With `O=C(Nc1nc2cccc(-c3ccc(OCc4cccnc4)cc3)n2n1)C1CC1` [reference compound], the EC50 was found to be 0.4 µM in assay [1] (setting [10]), 0.02 µM in assay [2] (setting [9]), 5.99 µM in assay [3] (setting [11]) and 0.36 µM in assay [4] (setting [12]).

`Cc1cc(Nc2nc(N[C@@H](C)c3ncc(F)cn3)ncc2Cl)n[nH]1` [reference compound]: the EC50 worked out at 2.61 µM in assay [1] (setting [10]), 0.008 µM in assay [2] (setting [9]), 3.3 µM in assay [3] (setting [11]) and 3.37 µM in assay [4] (setting [12]).

On to `CC(=O)N1CCOc2ccc(S(=O)(=O)Nc3ccc(-c4ccc5[nH]nc(N)c5n4)c(Cl)c3)cc21` [Example 86, 4-acetyl-N-(4-(3-amino-1H-pyrazolo[4,3-b]pyridin-5-yl)-3-chlorophenyl)-3,4-dihydro-2H-benzo[b][1,4]oxazine-6-sulfonamide], for which the EC50 in assay [1] (setting [5]) is above 10 µM; in assay [2] (setting [6]), 5.39 µM; in assay [3] (setting [7]), 4.86 µM; in assay [4] (setting [8]) it was above 10 µM.

Turning to `Nc1n[nH]c2ccc(-c3ccc(NS(=O)(=O)c4ccc5ccccc5c4)cc3Cl)nc12` [Example 82, N-(4-(3-amino-1H-pyrazolo[4,3-b]pyridin-5-yl)-3-chlorophenyl)naphthalene-2-sulfonamide], the EC50 in assay [1] (setting [5]) is 7.27 µM; in assay [2] (setting [6]), 2.61 µM; in assay [3] (setting [7]), 4.87 µM; in assay [4] (setting [8]) it was above 10 µM.

Turning to `Cc1cc(S(=O)(=O)N(C)[C@H]2C[C@](O)(C(F)(F)F)C2)ccc1-c1ccc2[nH]nc(N)c2n1` [Example 9, 4-(3-amino-1H-pyrazolo[4,3-b]pyridin-5-yl)-N-((1s,3s)-3-hydroxy-3-(trifluoromethyl)cyclobutyl)-N,3-dimethylbenzenesulfonamide], the concentration for a half-maximal effect (EC50) in assay [1] (setting [5]) was 0.577 µM; in assay [2] (setting [6]), 0.46 µM; in assay [3] (setting [7]), 2.14 µM; in assay [4] (setting [8]), 2.27 µM.

`Nc1n[nH]c2ccc(-c3ccc(S(=O)(=O)N4CC(F)(F)C[C@H]4CO)cc3Cl)nc12` [Example 18, (S)-(1-((4-(3-amino-1H-pyrazolo[4,3-b]pyridin-5-yl)-3-chlorophenyl)sulfonyl)-4,4-difluoropyrrolidin-2-yl)methanol]: the EC50 in assay [1] (setting [5]) is 1.83 µM; in assay [2] (setting [6]), 0.764 µM; in assay [3] (setting [7]), 0.75 µM; in assay [4] (setting [8]) it was 1.77 µM.

On to `CC(O)(C1CN(S(=O)(=O)c2ccc(-c3ccc4[nH]nc(N)c4n3)c(Cl)c2)CCN1)C(F)(F)F` (stereo not drawn) [Example 89, 2-(4-((4-(3-amino-1H-pyrazolo[4,3-b]pyridin-5-yl)-3-chlorophenyl)sulfonyl)piperazin-2-yl)-1,1,1-trifluoropropan-2-ol], for which the concentration for a half-maximal effect (EC50) came out at 7.27 µM in assay [1] (setting [5]), 2.19 µM in assay [2] (setting [6]), 5.01 µM in assay [3] (setting [7]) and 4.44 µM in assay [4] (setting [8]).

`Cc1cc(S(=O)(=O)N2CC3CCCC3C2)ccc1-c1ccc2[nH]nc(N)c2n1` (stereo not drawn) [Example 21, 5-(4-((hexahydrocyclopenta[c]pyrrol-2(1H)-yl)sulfonyl)-2-methylphenyl)-1H-pyrazolo[4,3-b]pyridin-3-amine]: the EC50 in assay [1] (setting [5]) was found to be 3.71 µM; in assay [2] (setting [6]) it was 0.598 µM; in assay [3] (setting [7]) it was 3.51 µM; in assay [4] (setting [8]) it was 4.93 µM.

For the compound `Nc1n[nH]c2ccc(-c3ccc(S(=O)(=O)NC4CS(=O)(=O)C4)cc3Cl)nc12` [Example 92, 4-(3-amino-1H-pyrazolo[4,3-b]pyridin-5-yl)-3-chloro-N-(1,1-dioxidothietan-3-yl)benzenesulfonamide], the EC50 in assay [1] (setting [5]) was found to be 1.35 µM; in assay [2] (setting [6]) it was 0.968 µM; in assay [3] (setting [7]), 6.28 µM; in assay [4] (setting [8]), 4.89 µM.

On to `Nc1n[nH]c2ccc(-c3ccc(S(=O)(=O)N[C@H]4C[C@](O)(C(F)(F)F)C4)cc3Cl)nc12` [Example 1], for which the EC50 in assay [1] (setting [5]) stood at 1.59 µM; in assay [2] (setting [6]), 0.183 µM; in assay [3] (setting [7]) it was 0.804 µM; in assay [4] (setting [8]), 2.11 µM.

For `CC[C@@](C)(Nc1ccnc(-c2c[nH]c3ncccc23)n1)C(=O)NCC(F)(F)F` [reference compound], the EC50 came out at 0.88 µM in assay [1] (setting [10]), 0.03 µM in assay [2] (read-out: Scx-Luc (EC50 uM)), 1.77 µM in assay [3] (setting [11]) and 1.65 µM in assay [4] (setting [12]).

As to `Nc1n[nH]c2ccc(-c3ccc(NS(=O)(=O)Cc4ccccc4)cc3Cl)nc12` [Example 59, N-(4-(3-amino-1H-pyrazolo[4,3-b]pyridin-5-yl)-3-chlorophenyl)-1-phenylmethanesulfonamide], the EC50 in assay [1] (setting [5]) was 5.71 µM; in assay [2] (setting [6]), 4.32 µM; in assay [3] (setting [7]) it was 4.61 µM; in assay [4] (setting [8]) it was above 10 µM.

`Nc1n[nH]c2ccc(-c3ccc(S(=O)(=O)NC4CCS(=O)(=O)C4)cc3Cl)nc12` (stereo not drawn) [Example 31, 4-(3-amino-1H-pyrazolo[4,3-b]pyridin-5-yl)-3-chloro-N-(1,1-dioxidotetrahydrothiophen-3-yl)benzenesulfonamide]: the EC50 is 2.63 µM in assay [1] (setting [5]), 0.411 µM in assay [2] (setting [6]), 2.76 µM in assay [3] (setting [7]) and 2.31 µM in assay [4] (setting [8]).

As for `Nc1n[nH]c2ccc(-c3ccc(S(=O)(=O)N4CC[C@@H](O)C4)cc3Cl)nc12` [Example 57, (R)-1-((4-(3-amino-1H-pyrazolo[4,3-b]pyridin-5-yl)-3-chlorophenyl)sulfonyl)pyrrolidin-3-ol], in assay [2] (setting [6]), the EC50 is 0.633 µM.

For `CC1(C)CN(C(=O)c2ccc(-c3cccc4nc(NC(=O)C5CC5)nn34)cc2)C1` [reference compound], the EC50 in assay [2] (setting [9]) is 1.42 µM.

On to `Nc1n[nH]c2ccc(-c3ccc(S(=O)(=O)N[C@@H]4CC[C@H](O)C4)cc3Cl)nc12` [Example 23, 4-(3-amino-1H-pyrazolo[4,3-b]pyridin-5-yl)-3-chloro-N-((1R,3S)-3-hydroxycyclopentyl)benzenesulfonamide], for which the EC50 in assay [2] (setting [6]) came out at 2.28 µM.

Regarding `CC1(C)CCC(NS(=O)(=O)c2ccc(-c3ccc4[nH]nc(N)c4n3)c(Cl)c2)CC1` [Example 24, 4-(3-amino-1H-pyrazolo[4,3-b]pyridin-5-yl)-3-chloro-N-(4,4-dimethylcyclohexyl)benzenesulfonamide], the EC50 in assay [2] (setting [6]) turned out to be 1.59 µM.

For the compound `Nc1n[nH]c2ccc(-c3ccc(S(=O)(=O)Nc4cccc(Cl)c4F)cc3Cl)nc12` [Example 52, 4-(3-amino-1H-pyrazolo[4,3-b]pyridin-5-yl)-3-chloro-N-(3-chloro-2-fluorophenyl)benzenesulfonamide], in assay [2] (setting [6]), the EC50 is 1.1 µM.

For `Nc1n[nH]c2ccc(-c3ccc(S(=O)(=O)N4CC(Oc5ccccc5)C4)cc3Cl)nc12` [Example 87, 5-(2-chloro-4-((3-phenoxyazetidin-1-yl)sulfonyl)phenyl)-1H-pyrazolo[4,3-b]pyridin-3-amine], in assay [2] (setting [6]), the EC50 stood at 0.83 µM.

For `Cc1cc(S(=O)(=O)N[C@H]2C[C@@H](O)C2)ccc1-c1ccc2[nH]nc(N)c2n1` [Example 64, 4-(3-amino-1H-pyrazolo[4,3-b]pyridin-5-yl)-N-((1s,3s)-3-hydroxycyclobutyl)-3-methylbenzenesulfonamide], the half-maximal effective concentration (EC50) in assay [2] (setting [6]) was 0.162 µM.

As for `C[C@@H](O)c1nc2cnc3[nH]ccc3c2n1[C@@H]1CCCOC1` [reference compound], in assay [2] (setting [9]), the EC50 came to 1.34 µM.

With `Nc1n[nH]c2ccc(-c3ccc(S(=O)(=O)NC4(CO)CCCC4)cc3Cl)nc12` [Example 30, 4-(3-amino-1H-pyrazolo[4,3-b]pyridin-5-yl)-3-chloro-N-(1-(hydroxymethyl)cyclopentyl)benzenesulfonamide], the EC50 in assay [2] (setting [6]) amounted to 2.07 µM.
